The record followed here is US5523403A, “Tropone-substituted phenyloxazolidinone antibacterial agents” (The Upjohn Company, priority 1995, dated 1996).

≈ marks a conversion by molar mass, not a printed value.

Assay [1] deals with Streptococcus pyogenes UC ® 152. The assay can be described thus: in vitro antibacterial activity, Minimum Inhibitory Concentration, Streptococcus pyogenes. The following applies: for MIC: Streptococcus pyogenes, UC152, read-out: Minimum Inhibitory Concentration.
Assay [2] relates to Staphylococcus aureus UC ® 9213. The assay can be described thus: in vitro antibacterial activity, Minimum Inhibitory Concentration, Staphylococcus aureus. The settings on record: for MIC: Staphylococcus aureus, UC9213, read-out: Minimum Inhibitory Concentration.

On to `CC(=O)NCC1CN(c2ccc(-c3ccc(NCCO)c(=O)cc3)cc2)C(=O)O1` (racemic) [Compound 4, (±)-N-[[3-[4-[4-[(2-hydroxyethyl)amino]-5-oxo1,3,6-cycloheptatrien-1-yl]phenyl]-2oxo-5-oxazolidinyl]methyl-acetamide], for which the MIC worked out at 0.5 µg/mL (≈ 1.26 µM) in assay [1] and 4 µg/mL (≈ 10.1 µM) in assay [2].

As to `C#CCNc1ccc(-c2ccc(N3C[C@H](CNC(C)=O)OC3=O)cc2F)ccc1=O` [Compound 34], the “Minimum Inhibitory Concentration” value is 0.25 µg/mL in assay [1] (in vitro, Streptococcus pyogenes UC ® 152) and 1 µg/mL in assay [2] (in vitro, Staphylococcus aureus UC ® 9213).

For the compound `CC(=O)NCC1CN(c2ccc(-c3ccc(N4CCCC4)c(=O)cc3)cc2)C(=O)O1` (racemic) [Compound 9, (±)-N-[[3-[4-[4-(1-pyrrolidinyl)-5-oxo-1,3,6-cycloheptatrien-1-yl]]phenyl]-2-oxo-5-oxazolidinyl]methyl]-acetamide], the figures for the MIC in assay [1] and in assay [2] were 1 µg/mL (≈ 2.45 µM) and 4 µg/mL (≈ 9.82 µM), respectively.

With `C=CCNc1ccc(-c2ccc(N3CC(CNC(C)=O)OC3=O)cc2)ccc1=O` (racemic) [Compound 8, (±)-N-[[3-[4-[4-(2-propenylamino)5-oxo-1,3,6-cycloheptatrien-1-yl]phenyl]-2-oxo-5-oxazolidinyl]methyl]-acetamide], the figures for the MIC in assay [1] and in assay [2] were 0.5 µg/mL (≈ 1.27 µM) and 2 µg/mL (≈ 5.08 µM), respectively.

For `CC(=O)NCC1CN(c2ccc(-c3ccc(OC(C)C)c(=O)cc3)cc2)C(=O)O1` (racemic) [Compound 24, (±)-N[[3-[4-[4-(1-methylethoxy)-5-oxo-1,3,6-cycloheptatrien-1-yl]phenyl]-2-oxo-5-oxazolidinyl]methyl]-acetamide], the MIC came out at 1 µg/mL (≈ 2.52 µM) in assay [1] and 4 µg/mL (≈ 10.1 µM) in assay [2].

For `CCCCNc1ccc(-c2ccc(N3CC(CNC(C)=O)OC3=O)cc2)ccc1=O` (racemic) [Compound 13, (±)-N-[[3-[4-(4-butylamino-5-oxo-1,3,6-cycloheptatrien-1-yl)phenyl]-2-oxo-5-oxazolidinyl]methyl]-acetamide], the values for the MIC in assay [1] and in assay [2] were 0.5 µg/mL (≈ 1.22 µM) and 2 µg/mL (≈ 4.88 µM), respectively.

Turning to `C=CCOc1ccc(-c2ccc(N3CC(CNC(C)=O)OC3=O)cc2)ccc1=O` (racemic) [Compound 33, (±)-N-[[3-[4-[4-(2-propenyloxy)5-oxo-1,3,6-cycloheptatrien-1-yl]phenyl]-2-oxo-5-oxazolidinyl)methyl]-acetamide], the MIC in assay [1] came out at 1 µg/mL (≈ 2.54 µM); in assay [2], 4 µg/mL (≈ 10.1 µM).

With `CC(=O)NCC1CN(c2ccc(-c3ccc(NCc4ccccc4)c(=O)cc3)cc2)C(=O)O1` (racemic) [Compound 3, (±)-Acetamide, N-[[2-oxo-3-[4-[5-oxo-4-[(phenylmethyl)amino]-1,3,6-cycloheptatrien-1-yl]phenyl]-5-oxazolidinyl]methyl]], the MIC in assay [1] is 4 µg/mL (≈ 9.02 µM); in assay [2] it was more than 64 µg/mL.
